Results taken from US9938240B2, “Fluorinated derivatives of 3-hydroxypyridin-4-ones” (Apotex Technologies Inc., priority 2009, dated 2018).

Key:
[1] = Distribution coefficient determination, D7.4 (1-octanol / K2HPO4 buffer); type: physicochemical; conditions: 1-octanol / K2HPO4 buffer 50 mM pH 7.4
Description: K2HPO4 buffer (50 mM, pH=7.4) and 1-octanol were used as the aqueous phase and the organic phase, respectively. The K2HPO4 buffer and 1-octanol were mixed, and pre-saturated with each other before use.
In a typical experiment, an aqueous solution of Apo6995 (3-hydroxy-2-methyl-1-(2,2,2-trifluoroethyl)pyridin-4(1H)-one) was prepared by weighing out 3 mg of the compound into a 10-mL test-tube. It was then mixed with K2HPO4 buffer (2 mL) and sonicated for 30 minutes with frequent vortexing. The solution was then filtered through HPLC syringe filter (4 mm PVDF syringe filter 0.45 μM) to obtain the aqueous solution.
One mL of this aqueous solution was pipetted out into another 10-mL test-tube and mixed with 1 mL of 1-octanol. The mixture was then vortexed for 1 hour. The solution was centrifuged at 2000 rpm for 10 minutes. A small amount of the lower aqueous layer was carefully pipetted out and analyzed by HPLC to obtain the peak height (HF). The distribution coefficient, D7.4, was calculated using the following equation: D7.4=(HI−HF)/HF.

[2] = tested on: human neuroblastoma MC-65 cells; assay: cells; conditions: for EC100 / minimal effective concentration: Homo sapiens, MC65, 48 h; for EC100: read-out: EC100 (maximum effective concentration); for minimal effective concentration: read-out: TH (threshold protective concentration); for CC2 (cytotoxic concentration): MC-65, cultured without tetracycline; for CC2 (cytotoxic concentration) / CC1 (cytotoxic concentration): viability below 80%; for CC1 (cytotoxic concentration): MC-65, presence of TET
Description: In this assay, human neuroblastoma cells (MC-65 cells) are genetically engineered to conditionally express amyloid β peptide (Aβ). The Aβ production is suppressed by tetracycline (TET+) presence in culture medium, and its production is activated when TET is withdrawn (TET−). The activation of Aβ production results in cell death “MC-65 suicide”.
Protective effect of compounds against edogenously produced amyloid beta (Aβ) was assessed in human neuroblastoma MC-65 cells. MC-65 cells have been stably transformed to conditionally express high levels of a partial amyloid precursor (AP) fusion protein (Bryce Sopher et al., Brain Res Mol Brain Res. 1994, 207-17.). This protein is further proteolitically processed in the cells to form a set of AP-derived Aβ peptides. […] Activity of the promoter is tightly regulated by the presence of the antibiotic tetracycline (TET) in the culture medium. In the presence of TET (TET+), the promoter is in the basal state and no amyloid beta peptide is synthesized. In the absence of TET (TET−) the promoter is in induced state, resulting in the accumulation of Aβ peptides in the cells, degenerative changes in cell morphology and decreased survival.
Transfected human neuroblastoma cells (MC-65) were cultured in DMEM (ATCC) supplemented with non-essential amino acids and 10% FBS (VWR) in the presence of TET (1 μg/mL). For the experiment, the cells were plated at 35,000 cells/cm^2 and grown for 1 day in the regular culture media prior to compound addition. On the day of the assay, culture supernatant was removed from the wells and cells were thoroughly washed once with the compound incubation matrix containing no FBS and no TET. MC-65 cells were treated with a test compound at pre-determined range of concentrations in a basal medium containing no FBS and in the absence or presence of 1 μg/mL TET for approximately 48 h. Cell viability was then measured using the MTT method.
For data analysis, cell viabilities relative to the control not treated with a test compound and maintained in the presence of TET were plotted against the compound concentration. […] Cytotoxicity of the test compound was assessed in the cells maintained in the presence of TET.

[3] = tested on: SH-SY5Y human neuroblastoma cells; conditions: for CC2 (cytotoxic concentration): H2O2-treated cells, viability below 80%; for CC1 (cytotoxic concentration): absence of H2O2, viability below 80%
Text: Hydrogen peroxide (H2O2) is a major ROS (reactive oxidative species), which causes oxidative stress, and can induce apoptosis in many different cell types. One of the CNS drug design strategies is to use compounds with antioxidant properties as a possible treatment of both acute and chronic neurodegenerative diseases (Kang et al. Bioorganic & Medicinal Chemistry Letters, 2004, 14, 2261-2264). This involves testing the compounds of this invention for their protective effect against oxidative stress-induced cell death in SH-SY5Y human neuroblastoma cells. SH-SY5Y human neuroblastoma cells were cultured in DMEM (ATCC)/F12 (Cellgro) with 10% FBS. The cells were plated at 30,000 cells/cm^2 and grown for 1 day in the regular culture media prior to compound addition. Cells were routinely treated with the test compound, at a pre-determined range of concentrations, in the presence or absence of 50 μM hydrogen peroxide in a basal medium containing no FBS for 16-22 h. Cell viability was then measured using the routine MTT method (Mosmann, T., Rapid Colorimetric Assay for Cellular Growth and Survival: Application to Proliferation and Cytotoxicity Assays”. J. Immunol. Meth. 1983, 65, 55-63).
For data analysis, cell viability relative to control not treated with either H2O2 or the test compound, was plotted against the compound concentration. […] Cytotoxicity of the test compound was assessed in the absence of hydrogen peroxide.

[4] = Oral cassette dosing PK/BBB studies; type: in vivo, male Sprague-Dawley rats; conditions: oral cassette dosing, male Sprague-Dawley rats; for AUC brain* / AUC: AUC normalized to 1 mg/kg dose; for Kp / AUC: rat; for Kp: brain and plasma, read-out: AUC brain/AUC plasma; for AUC: plasma
Description: In-vivo pharmacokinetic (PK) and blood brain barrier (BBB) studies were conducted in male Sprague-Dawley rats using cassette dosing via oral administration. […] No. 15, pp. 652-658.

| Structure (SMILES) | D7.4 [1] | logD ([1]; read-out: Log D7.4) | EC100 [2] [µM] | minimal effective concentration [2] [µM] | CC2 (cytotoxic concentration) [2] [µM] | CC1 (cytotoxic concentration) [2] [µM] | CC2 (cytotoxic concentration) [3] [µM] | CC1 (cytotoxic concentration) [3] [µM] | AUC brain* [4] [ng·h/mL] | Kp [4] | AUC [4] [ng·h/mL] |
| --- | --- | --- | --- | --- | --- | --- | --- | --- | --- | --- | --- |
| Cc1cc(=O)c(O)c(CN(C)C)n1CC(F)F [Apo7083, 1-(2,2-difluoroethyl)-2-[(dimethylamino)methyl]-3-hydroxy-6-methylpyridin-4(1H)-one] | 1.70 | 0.23 | 10 | 0.1 | 40 | 40 | – | – | – | – | – |
| Cn1ccc(=O)c(O)c1C(N1CCCCC1)C(F)(F)F (stereo not drawn) [Apo7058, 3-hydroxy-1-methyl-2-[2,2,2-trifluoro-1-(piperidin-1-yl)ethyl]pyridin-4(1H)-one] | – | – | 10 | 1 | 80 | 10 | >640 | 20 | – | – | – |
| Cn1ccc(=O)c(O)c1C(NC1CC1)C(F)(F)F (stereo not drawn) [Apo7074, 2-[1-(cyclopropylamino)-2,2,2-trifluoroethyl]-3-hydroxy-1-methylpyridin-4(1H)-one] | – | – | 10 | 0.1 | 20 | 10 | >640 | 20 | – | – | – |
| Cn1ccc(=O)c(O)c1C(C(F)F)N1CCCCC1 (stereo not drawn) [Apo7319, 2-(2,2-difluoro-1-(piperidin-1-yl)ethyl)-3-hydroxy-1-methylpyridin-4(1H)-one] | – | – | 10 | 1 | 40 | 40 | 320 | 320 | – | – | – |
| Cc1cc(=O)c(O)c(CN2CCOCC2)n1CC(F)(F)F [Apo7434, 3-hydroxy-6-methyl-2-(morpholinomethyl)-1-(2,2,2-trifluoroethyl)pyridin-4(1H)-one] | – | – | 20 | 1 | 40 | 40 | 320 | 320 | – | – | – |
| CN1CCN(C(c2c(O)c(=O)ccn2C)C(F)(F)F)CC1 (stereo not drawn) [Apo7073, 3-hydroxy-1-methyl-2-[2,2,2-trifluoro-1-(4-methylpiperazin-1-yl)ethyl]pyridin-4(1H)-one] | – | – | 10 | 0.1 | 20 | 40 | >640 | 40 | – | – | – |
| Cc1cc(=O)c(O)c(CN2CCCCC2)n1CC(F)(F)F [Apo7071, 3-hydroxy-6-methyl-2-(piperidin-1-ylmethyl)-1-(2,2,2-trifluoroethyl)pyridin-4(1H)-one] | – | – | 10 | 1 | 20 | 40 | 80 | 20 | – | – | – |
| CN(C)Cc1cc(=O)c(O)c(CC(F)(F)F)n1C [Apo7021, 6-[(dimethylamino)methyl]-3-hydroxy-1-methyl-2-(2,2,2-trifluoroethyl)pyridin-4(1H)-one] | – | – | 10 | 0.1 | 20 | 10 | >640 | 80 | – | – | – |
| Cn1ccc(=O)c(O)c1CC(F)F [Apo7080, 2-(2,2-difluoroethyl)-3-hydroxy-1-methylpyridin-4(1H)-one] | – | – | 10 | 0.1 | 40 | 40 | >640 | 40 | 700 | 0.76 | 920 |
| Cc1c(O)c(=O)c(C(n2ccnc2)C(F)(F)F)cn1C (stereo not drawn) [Apo7055, 3-Hydroxy-1,2-dimethyl-5-[2,2,2-trifluoro-1-(1H-imidazol-1-yl)ethyl]pyridin-4(1H)-one] | – | – | 20 | 1 | 40 | 40 | >640 | 10 | – | – | – |
| Oc1c(I)cc(Cl)c2cccnc12 [Clioquinol, reference compound] | – | – | – | – | – | – | – | – | 42 | 1.5 | 28 |
| Cc1c(O)c(=O)c(C(N2CCCCC2)C(F)(F)F)cn1C (stereo not drawn) [Apo7054, 3-Hydroxy-1,2-dimethyl-5-[2,2,2-trifluoro-1-(piperidin-1-yl)ethyl]pyridin-4(1H)-one] | – | – | 1 | 0.1 | 20 | 20 | >640 | 5 | – | – | – |
| Cc1cc(=O)c(O)c(C(N2CCN(Cc3ccccc3)CC2)C(F)(F)F)n1C (stereo not drawn) [Apo7334, 2-(1-(4-benzylpiperazin-1-yl)-2,2,2-trifluoroethyl)-3-hydroxy-1,6-dimethylpyridin-4(1H)-one] | – | – | 10 | 1 | 20 | 10 | 320 | 40 | – | – | – |
